Key:
human 5-HT7a receptor = human 5-HT7a receptor (Homo sapiens (Human), UniProt P34969); assay: Radioligand binding competition, filtration binding assay, 5-HT7a; settings: affinity on 5-HT7 receptor, table of new compounds
Description: FIG. 14: Testing of 8 molecules for radioligand binding competition activity on recombinant human 5-HT1A, 5-HT2A, 5-HT2Cedited, 5-HT6, 5-HT7 and D2(long) receptors using filtration binding assays.
Radioligand Binding experiments were conducted with Epics Therapeutics membrane preparations. Receptor accession numbers, cellular background and reference compounds are shown in this table.
Reference values thus obtained for the test were compared to historical values obtained from the same receptor and used to validate the experimental session. For replicate determinations, the maximum variability tolerated in the test was of +/−20% around the average of the replicates.
Dose-response data from test compounds were analyzed with XLfit (IDBS) software using nonlinear regression applied to a sigmoidal dose-response model and the following equation: • XL Fit fit Model 203: 4 Parameter Logistic Model • A: Bottom • B: TOP • C: LogEC50 • D: Hill

mice [1] = assay: Tail immersion test (50° C.); type: in vivo; settings: 5-HT7R KO mice, subcutaneous
Description: (A) Experimental protocol summary used. (B) Mice were subcutaneously injected with two different doses of the 5-HT7 receptor agonist Serodolin, 1 mg/kg or 5 mg/kg and 10 min later their tail extremity was immersed in water heated to 50 degrees. […] The effect of injections (Serodolin or E55888) was evaluated at TO, 30 min and 60 min corresponding to 10, 40 and 70 min after compound injections. […] Their tail extremity was immersed in water heated to 50 degrees at TO (E) or 30 min later (F) corresponding to 10 and 40 min after agonist injections. […] Statistical analysis was done using Tukey's multiple comparison test.
Tail immersion test. Nociception was assessed with the tail immersion test, 10 min and 40 min after E55888 (5 mg/kg) or Serodolin (5 mg/kg) tail subcutaneous injections, in the water heated to 50° C. Vehicle (20% DMSO, 5% Tween 80 diluted in PBS solution) was used as a control group. These different groups were intraperitoneally injected (+) or not (−) with the 5-HT7R antagonist SB269960 (5 mg/kg) 10 min before the ligand injection. The tail withdrawal latency (s) was measured for each animal.

mice [2] = assay: CFA-induced mechanical hypersensitivity, Von Frey filament test; type: in vivo; settings: 5 mg/kg, s.c., 30 minutes
Description: Mechanical hypersensitivity was evaluated after CFA intraplantar injection by using the Von Frey test. […] Mechanical hypersensitivity was performed 24 hrs later (pre-treatment) CFA intraplantar injection into the left hind paw (ipsilateral paw). […] The ligand effects (E55888 or Serodolin) were evaluated 30 min and 24 hrs after in the ipsilateral paw. Data are means±SEM of values obtained in 2 independent experiments (n=8 to 10 per group). ****p<0.0001 ***p<0.001 **p<0.01 *p<0.05. Statistical analysis was done using Kruskal Wallis test.
Von Frey filament test. Before inducing peripheral inflammation, each animal was tested on the left hind paw with Von Frey Filament to determine its basal sensibility level. Then, peripheral inflammation was induced by intraplantar injection of Complete Freund's Adjuvant (CFA-10 μL) (F5881, Sigma) in the left hind paw (ipsilateral paw) and mechanical allodynia was measure (pre-treatment). Mice were divided into two groups, one with E55888 (5 mg/kg) and the other with Serodolin (5 mg/kg) subcutaneous injections in the ipsilateral paw. Both in absence (−) or in presence (+) of the 5-HT7R antagonist SB269960 (5 mg/kg), intraperitoneally, 20 min before the agonist injections (8-10 mice per group).
The inventors wanted to evaluate the effect of Serodolin on mechanical hypersensitivity in comparison with E-55888 after CFA injection.

[3] = Pharmacokinetic study in plasma and brain; type: in vivo, C57BL/6 mice; settings: 5 mg/kg, subcutaneous
Description: FIG. 20: Pharmacokinetic study of E55888 and Serodolin. Concentration-time profile of E55888 (reference agonist) and Serodolin in plasma (A) and brain (B) following subcutaneous injection of a unique dose 5 mg/kg of each compound in C57BL/6 mice. Data represent the mean concentration±SEM of n=4 each time point.
The pharmacokinetic study was undertaken to evaluate and compare the quantity of Serodolin and E55888 in plasma and brain samples from C57BL/6 mice (Janvier, Le Genest France) at several time points. Seven weeks old C57BL/6 mice (n=4 animals per group) received by subcutaneous injection a unique dose (5 mg/kg) of Serodolin or E55888 (U103013S, Achemblock). Control group received vehicle (solution of 20% DMSO and 5% Tween 80 diluted in NaCl). […] Blank vehicle mouse brains homogenates and plasma were used to established standard curves of Serodolin or E55888. […] Study samples, brains homogenates and plasma, were prepared for protein precipitation by adding 85 μL of acetonitrile+5-CT to 20 μL of samples. LC-HRMS analysis for PK studies were performed on a maXis Q-TOF mass spectrometer (Bruker, Bremen, Germany) coupled to an U3000 RSLC UHPLC system (Dionex, Germering, Germany). Separation was obtained using an Acquity UPLC BEH C18 column (2.1×50 mm; 1.7 μm) (Waters, Saint-Quentin-en-Yvelines, France) thermostated at 40° C. with a gradient of water (solvent A) and acetonitrile (solvent B), both acidified with 0.1% formic acid at 500 μL/min. […] The samples were randomized prior analysis; 1.25 μL were injected for plasma and 8 μL for brains. […] Area were integrated from extracted ion chromatograms (EIC) of [M+H]+ ions using QuantAnalysis 4.4 software (Bruker) with a tolerance of ±0.005 u.
The pharmacokinetics profile of both compounds were evaluated. The inventors used liquid chromatography tandem mass spectrometry (UPLC-MS/MS) method to perform PK study and measure Serodolin vs E55888 levels in vivo.

Chain of human 5-HT7a receptor (P34969 other isoform, or with tags, fused parts or gaps): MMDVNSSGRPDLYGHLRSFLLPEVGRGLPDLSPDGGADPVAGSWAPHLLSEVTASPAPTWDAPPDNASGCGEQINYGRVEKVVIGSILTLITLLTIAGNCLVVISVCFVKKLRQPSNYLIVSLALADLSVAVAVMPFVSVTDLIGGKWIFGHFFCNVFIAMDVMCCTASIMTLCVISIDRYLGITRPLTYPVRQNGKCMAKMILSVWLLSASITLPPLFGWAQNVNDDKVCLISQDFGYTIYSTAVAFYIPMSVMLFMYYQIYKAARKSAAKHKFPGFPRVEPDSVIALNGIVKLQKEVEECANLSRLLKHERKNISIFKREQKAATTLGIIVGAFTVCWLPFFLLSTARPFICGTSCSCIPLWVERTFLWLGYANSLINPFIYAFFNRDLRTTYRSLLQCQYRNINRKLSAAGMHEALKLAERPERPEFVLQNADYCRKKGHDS

SMILES: Cc1nn(C)c(C)c1-c1cccc(CCN(C)C)c1 [E55888, reference compound]
- IC50 (human 5-HT7a receptor): 2.68 nM
- Ki (human 5-HT7a receptor): 1.88 nM
- anti-nociceptive effect in 5-HT7R KO mice (mice [1]): did not exert any anti-nociceptive effect
- CFA-induced mechanical hypersensitivity, 30 minutes after administration (mice [2]): reversed the CFA-induced mechanical hypersensitivity
- passage of the brain blood barrier [3]: ability to pass the brain blood barrier
- time of maximum of detection ([3]; both in plasma and brain): 15 to 30 min
- maximum of detection in brain ([3]; brain): 1.4 ± 0.2 µg/mL
- maximum of detection in plasma ([3]; plasma): 6.1 ± 0.5 µg/mL
- time after which eliminated / undetectable ([3]; plasma and brain): 120 min
